Data as given in patent publication US20040152904A1, “Delta1 pyrrolines” (priority 2001, published 2004).

Experiments:
[1] = tested on: caterpillars of the diamond-back moth (Plutella xylostella); experiment: Plutella test; type: in vivo; details: 40 ppm active compound, cabbage leaves dipped
Experimental: Plutella Test Solvent: 30 parts by weight of dimethylformamide Emulsifier: 1 part by weight of alkylaryl polyglycol ether To produce a suitable preparation of active compound, 1 part by weight of active compound is mixed with the stated amounts of solvent and emulsifier, and the concentrate is diluted with emulsifier-containing water to the desired concentration. Cabbage leaves (Brassica oleracea) are treated by being dipped into the preparation of active compound of the desired concentration and are populated with caterpillars of the diamond-back moth (Plutella xylostella) whilst the leaves are still moist. After the desired period of time, the kill in % is determined. 100% means that all caterpillars have been killed; 0% means that none of the caterpillars have been killed.

[2] = tested on: Lucilia cuprina larvae; experiment: Blowfly larvae test / development-inhibitory action; type: in vivo; details: 100 ppm active compound
Experimental: Blowfly Larvae Test/Development-Inhibitory Action Test animals: Lucilia cuprina larvae Solvent: Dimethyl sulphoxide 20 mg of active compound are dissolved in 1 ml of dimethyl sulphoxide, more dilute concentrations are prepared by dilution with distilled water. About 20 Lucilia cuprina larvae are introduced into a test tube which contains about 1 cm^3 of horse meat and 0.5 ml of the preparation of active compound to be tested. The efficacy of the preparation of active compound is determined after 24 and 48 hours. The test tubes are transferred into beakers whose bottom is covered with sand. After a further 2 days, the test tubes are removed and the pupae are counted. The activity of the preparation of active compound is assessed by the number of flies that have hatched after 1.5 times the development time of an untreated control. 100% means that no flies have hatched; 0% means that all flies have hatched normally.

| Structure (SMILES) | Kill rate in % after 6d [1] [%] | Kill rate in % after 48h [2] [%] |
| --- | --- | --- |
| CC(C)(C)n1nnc(-c2ccc(-c3ccc(C4CCC(c5c(F)cccc5F)=N4)cc3)cc2)n1 (stereo not drawn) [drawing 60] | 100 |  |
| CCn1nnc(-c2ccc(-c3ccc(C4CCC(c5c(F)cccc5F)=N4)cc3)cc2)n1 (stereo not drawn) [drawing 71] |  | 100 |
| CCOCn1nnc(-c2ccc(-c3ccc(C4CCC(c5c(F)cccc5F)=N4)cc3)cc2)n1 (stereo not drawn) [drawing 72] |  | 70 |
